The source made the active and inactive calls. The calls are words filed in the database; no cut-off is given here.
Key:
[1] = target: T1, Vitamin D3 receptor (Homo sapiens) (UniProt P11473); test: Agonist activity at VDR (unknown origin) transfected in human HepG2 cells co-transfected with renilla reniformis luciferase reporter at 10 uM incubated for 24 hrs by dual-luciferase reporter gene assay; type: cell-based
T1 sequence (whole entry): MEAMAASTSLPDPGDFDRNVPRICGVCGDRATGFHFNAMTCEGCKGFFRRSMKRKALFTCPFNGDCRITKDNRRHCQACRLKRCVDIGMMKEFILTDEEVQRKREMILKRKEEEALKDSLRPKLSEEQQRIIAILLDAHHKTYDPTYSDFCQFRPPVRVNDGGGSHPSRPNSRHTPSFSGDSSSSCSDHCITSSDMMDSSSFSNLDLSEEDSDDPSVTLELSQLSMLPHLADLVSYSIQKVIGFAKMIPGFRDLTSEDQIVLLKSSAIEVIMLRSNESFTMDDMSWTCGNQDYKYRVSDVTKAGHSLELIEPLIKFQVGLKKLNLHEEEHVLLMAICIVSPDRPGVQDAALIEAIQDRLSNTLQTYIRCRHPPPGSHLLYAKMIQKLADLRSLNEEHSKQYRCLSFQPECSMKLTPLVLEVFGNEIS

[2] = tested on: Hepatocellular carcinoma organoid; test: Antiproliferative activity against C57BL/6 mouse Hepatocellular carcinoma organoids harboring myristoylated Akt1 and overexpressing Myc assessed as reduction in cell viability at 1 to 5 uM measured after 5 days in presence of sorafenib by Celltiter-glo assay; type: functional, tissue-based; settings: Neoplasm, dose 1-5 µM, time 5.0 day
[3] = target: Estrogen receptor beta (Homo sapiens) (UniProt Q92731); test: Agonist activity at ERbeta (unknown origin) transfected in human HepG2 cells co-transfected with renilla reniformis luciferase reporter at 10 uM incubated for 24 hrs by dual-luciferase reporter gene assay; type: cell-based
Hep 3B2 [4] = test: Antiproliferative activity against human Hep3B cells assessed as reduction in cell viability at 0.01 to 100 uM measured after 5 days in presence of sorafenib and sodium oleate by CellTiter-Glo assay; type: functional, cell-based; settings: dose 0.01-100 µM, time 5.0 day
Hep 3B2 [5] = test: Induction of endoplasmic reticulum (ER) stress in human Hep3B cells assessed as increase in CHOP expression measured after 3 days in presence of sorafenib by Western blot analysis; type: functional, cell-based; settings: time 3.0 day
BNL CL.2 = test: Cytotoxicity against mouse BNL CL.2 cells assessed as reduction in cell viability at 0.01 to 100 uM measured after 5 days in presence of sorafenib by CellTiter-Glo assay; type: toxicity, cell-based; settings: bnl cl.2, 120 h, dose 0.01-100 µM, time 5 day
Hep 3B2 [6] = test: Antiproliferative activity against human Hep3B cells assessed as reduction in cell viability measured after 5 days in presence of sorafenib by Celltiter-glo assay; type: functional, cell-based; settings: 120 h
[7] = target: T2, Nuclear receptor subfamily 1 group I member 3 (Mus musculus, UniProt O35627); test: Agonist activity at mouse CAR transfected in human HepG2 cells co-transfected with p2B6-luciferase reporter at 10 uM incubated for 24 hrs by dual-luciferase reporter gene assay; type: cell-based; settings: hepg2, 24 h
T2 sequence (O35627 whole entry): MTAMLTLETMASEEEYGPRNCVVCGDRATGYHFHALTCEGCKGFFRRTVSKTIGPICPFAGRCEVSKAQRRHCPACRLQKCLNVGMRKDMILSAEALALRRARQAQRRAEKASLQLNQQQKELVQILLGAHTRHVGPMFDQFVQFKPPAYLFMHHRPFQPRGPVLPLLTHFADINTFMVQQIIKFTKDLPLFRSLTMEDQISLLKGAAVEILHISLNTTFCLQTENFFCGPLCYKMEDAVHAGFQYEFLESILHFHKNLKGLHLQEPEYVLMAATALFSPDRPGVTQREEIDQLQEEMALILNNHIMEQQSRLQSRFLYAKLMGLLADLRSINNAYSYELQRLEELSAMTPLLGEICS

[8] = target: T3, Bile acid receptor (Homo sapiens) (UniProt Q96RI1); test: Agonist activity at FXR (unknown origin) transfected in human HepG2 cells co-transfected with renilla reniformis luciferase reporter at 10 uM incubated for 24 hrs by dual-luciferase reporter gene assay; type: cell-based
T3 sequence (whole entry): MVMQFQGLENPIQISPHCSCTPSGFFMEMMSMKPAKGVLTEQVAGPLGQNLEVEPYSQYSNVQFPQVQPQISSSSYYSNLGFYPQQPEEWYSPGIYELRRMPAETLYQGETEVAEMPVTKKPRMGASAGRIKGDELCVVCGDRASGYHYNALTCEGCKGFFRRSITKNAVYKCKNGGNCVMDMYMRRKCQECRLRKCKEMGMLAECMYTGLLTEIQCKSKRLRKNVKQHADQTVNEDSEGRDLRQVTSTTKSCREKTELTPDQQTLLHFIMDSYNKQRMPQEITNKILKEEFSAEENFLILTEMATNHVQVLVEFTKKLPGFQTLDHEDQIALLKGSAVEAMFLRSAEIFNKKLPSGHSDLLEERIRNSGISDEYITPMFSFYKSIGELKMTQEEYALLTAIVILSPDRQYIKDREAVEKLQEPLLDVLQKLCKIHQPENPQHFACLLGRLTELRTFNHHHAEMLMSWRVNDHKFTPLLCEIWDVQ

Estrogen receptor beta (Homo sapiens), sequence (Q92731 whole entry): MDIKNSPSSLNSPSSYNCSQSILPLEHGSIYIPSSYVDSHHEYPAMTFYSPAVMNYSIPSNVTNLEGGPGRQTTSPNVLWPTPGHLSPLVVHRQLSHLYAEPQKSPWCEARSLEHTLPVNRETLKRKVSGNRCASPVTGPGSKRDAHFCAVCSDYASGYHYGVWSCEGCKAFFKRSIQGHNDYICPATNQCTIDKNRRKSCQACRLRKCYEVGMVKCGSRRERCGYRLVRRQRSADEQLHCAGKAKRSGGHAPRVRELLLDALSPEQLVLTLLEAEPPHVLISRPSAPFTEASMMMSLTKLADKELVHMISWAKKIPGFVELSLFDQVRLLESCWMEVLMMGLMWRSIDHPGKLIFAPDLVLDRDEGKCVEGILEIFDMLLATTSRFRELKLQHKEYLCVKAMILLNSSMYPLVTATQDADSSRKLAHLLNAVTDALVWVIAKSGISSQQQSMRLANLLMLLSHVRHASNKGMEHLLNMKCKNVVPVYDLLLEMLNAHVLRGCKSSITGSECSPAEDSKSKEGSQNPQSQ

Activity [1]: inactive | Activity [3]: inactive | Activity [7]: Not_active | Activity [8]: inactive
Compound: O=C1C(Nc2ccc(N3CCCCC3)cc2)=C(c2ccccc2)C(=O)N1Cc1ccccc1
Activity [2]: Active | Activity (Hep 3B2 [4]): inactive | Activity (Hep 3B2 [5]): Active | Activity (BNL CL.2): Toxic | EC50 (Hep 3B2 [6]): 1700 nM

From ChEMBL document CHEMBL6115048, “Uncovering α-Selectivity for Liver X Receptor Agonists for Lipotoxic Cancer Therapies” (J Med Chem, 2025)
